Literature values in US7446222B2, “Phenyl compounds” (Glaxo Group Limited, priority 2002, dated 2008).

How the values were obtained:
[1] = test system: rodent model of post-operative pain
[2] = test system: rat model of chronic constriction injury
[3] = molecular target: T1, human EP1 prostanoid receptor (Homo sapiens, UniProt P34995); details: human EP1 prostanoid receptor ligand
T1 sequence (P34995 1-402): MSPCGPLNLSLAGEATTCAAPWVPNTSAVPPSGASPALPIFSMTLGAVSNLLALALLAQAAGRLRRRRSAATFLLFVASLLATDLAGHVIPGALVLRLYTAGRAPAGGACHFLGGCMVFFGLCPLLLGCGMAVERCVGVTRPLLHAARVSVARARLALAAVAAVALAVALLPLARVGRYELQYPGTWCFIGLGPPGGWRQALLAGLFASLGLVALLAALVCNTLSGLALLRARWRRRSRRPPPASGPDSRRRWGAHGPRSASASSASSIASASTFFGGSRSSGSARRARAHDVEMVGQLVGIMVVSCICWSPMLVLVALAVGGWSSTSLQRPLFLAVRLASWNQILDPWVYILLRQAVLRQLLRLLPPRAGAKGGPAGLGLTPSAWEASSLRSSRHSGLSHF

| potency compared with the comparable 2,3-diarylthiophene compound [3] | selectivity compared with the comparable 2,3-diarylthiophene compound [3] | Compound | effect on mechanical hyperalgesia [1] | effect on hyperalgesia and allodynia [2] |
| --- | --- | --- | --- | --- |
| – | – | Cc1cc(Cl)ccc1S(=O)(=O)NC[C@H]1C2CCC(CC2)[C@@H]1/C=C\CCCC(=O)O [ONO-8711] | inhibits mechanical hyperalgesia | reduces hyperalgesia and allodynia |
| less potent | less selective | O=C(O)c1ccc(-c2ccccc2-c2ccccc2OCc2ccccc2)cc1 [2-benzyloxy[1,1′;2′,1″]terphenyl-4″-carboxylic acid] | – | – |
